Measured values: patent US20190330224A1, “ACC INHIBITORS AND USES THEREOF” (Gilead Apollo, LLC, priority 2015, published 2019)
≈ marks a conversion by molar mass, not a printed value. Like-named read-outs stand apart in the source and are kept apart here.

Columns and labels:
C. krusei ATCC 6258 = assay: Anti-Fungal Activity Assay (broth microtiter MIC), C. krusei; format: cell-based, Candida krusei; conditions: for MIC: Pichia kudriavzevii, ATCC6258, 48 h, read-out: MIC C. krusei ATCC 6258
Description: (§1) Compounds of the present invention were evaluated in an Anti-Fungal Activity Assay. An exemplary procedure for the assay, which measures the susceptibility of various Candida species to anti-fungal compounds, follows. Compounds to be tested (including fluconazole and amphotericin B) were dissolved in DMSO to obtain a solution having a concentration of 1 mg/mL. […] All species were grown from frozen stock by directly plating on to freshly prepared Sabouraud Dextrose agar (BD, Difco) and incubated overnight in ambient air at 35° C. for 24 h. A direct suspension was prepared in RPMI 1640+MOPS (Lonza, Biowhittaker) by taking individual colonies from the overnight cultures using sterile swabs soaked in sterile saline. The concentration of the suspension was determined using pre-determined standard curves. […] Broth microtiter MIC challenge plates were prepared following CLSI guidelines (M27-A3, Vol. 28 No. 14). The original CLSI guidelines focused on reading Candida MICs after 48 h of incubation. As reading after only 24 h offers a clear advantage of patient care, QC limits are being established for all drugs at 24 h. That being said there are no known interpretive breakpoints for amphotericin B at 24 h and the current fluconazole interpretive breakpoints are based on a 48 h reading. The MIC breakpoints for the test compounds were recorded at 48 h, and for the soraphen the 24 h time-point was added. All MIC determinations were achieved by visually comparing the growth found in the antibiotic challenged wells to that of the growth control.

Fungal ACC2 = Fungal ACC2 (UniProt Q00955); conditions: read-out: Fungal ACC2 (IC50, in vitro ACC2 inhibition)
Sequence of Fungal ACC2 (Q00955 whole entry): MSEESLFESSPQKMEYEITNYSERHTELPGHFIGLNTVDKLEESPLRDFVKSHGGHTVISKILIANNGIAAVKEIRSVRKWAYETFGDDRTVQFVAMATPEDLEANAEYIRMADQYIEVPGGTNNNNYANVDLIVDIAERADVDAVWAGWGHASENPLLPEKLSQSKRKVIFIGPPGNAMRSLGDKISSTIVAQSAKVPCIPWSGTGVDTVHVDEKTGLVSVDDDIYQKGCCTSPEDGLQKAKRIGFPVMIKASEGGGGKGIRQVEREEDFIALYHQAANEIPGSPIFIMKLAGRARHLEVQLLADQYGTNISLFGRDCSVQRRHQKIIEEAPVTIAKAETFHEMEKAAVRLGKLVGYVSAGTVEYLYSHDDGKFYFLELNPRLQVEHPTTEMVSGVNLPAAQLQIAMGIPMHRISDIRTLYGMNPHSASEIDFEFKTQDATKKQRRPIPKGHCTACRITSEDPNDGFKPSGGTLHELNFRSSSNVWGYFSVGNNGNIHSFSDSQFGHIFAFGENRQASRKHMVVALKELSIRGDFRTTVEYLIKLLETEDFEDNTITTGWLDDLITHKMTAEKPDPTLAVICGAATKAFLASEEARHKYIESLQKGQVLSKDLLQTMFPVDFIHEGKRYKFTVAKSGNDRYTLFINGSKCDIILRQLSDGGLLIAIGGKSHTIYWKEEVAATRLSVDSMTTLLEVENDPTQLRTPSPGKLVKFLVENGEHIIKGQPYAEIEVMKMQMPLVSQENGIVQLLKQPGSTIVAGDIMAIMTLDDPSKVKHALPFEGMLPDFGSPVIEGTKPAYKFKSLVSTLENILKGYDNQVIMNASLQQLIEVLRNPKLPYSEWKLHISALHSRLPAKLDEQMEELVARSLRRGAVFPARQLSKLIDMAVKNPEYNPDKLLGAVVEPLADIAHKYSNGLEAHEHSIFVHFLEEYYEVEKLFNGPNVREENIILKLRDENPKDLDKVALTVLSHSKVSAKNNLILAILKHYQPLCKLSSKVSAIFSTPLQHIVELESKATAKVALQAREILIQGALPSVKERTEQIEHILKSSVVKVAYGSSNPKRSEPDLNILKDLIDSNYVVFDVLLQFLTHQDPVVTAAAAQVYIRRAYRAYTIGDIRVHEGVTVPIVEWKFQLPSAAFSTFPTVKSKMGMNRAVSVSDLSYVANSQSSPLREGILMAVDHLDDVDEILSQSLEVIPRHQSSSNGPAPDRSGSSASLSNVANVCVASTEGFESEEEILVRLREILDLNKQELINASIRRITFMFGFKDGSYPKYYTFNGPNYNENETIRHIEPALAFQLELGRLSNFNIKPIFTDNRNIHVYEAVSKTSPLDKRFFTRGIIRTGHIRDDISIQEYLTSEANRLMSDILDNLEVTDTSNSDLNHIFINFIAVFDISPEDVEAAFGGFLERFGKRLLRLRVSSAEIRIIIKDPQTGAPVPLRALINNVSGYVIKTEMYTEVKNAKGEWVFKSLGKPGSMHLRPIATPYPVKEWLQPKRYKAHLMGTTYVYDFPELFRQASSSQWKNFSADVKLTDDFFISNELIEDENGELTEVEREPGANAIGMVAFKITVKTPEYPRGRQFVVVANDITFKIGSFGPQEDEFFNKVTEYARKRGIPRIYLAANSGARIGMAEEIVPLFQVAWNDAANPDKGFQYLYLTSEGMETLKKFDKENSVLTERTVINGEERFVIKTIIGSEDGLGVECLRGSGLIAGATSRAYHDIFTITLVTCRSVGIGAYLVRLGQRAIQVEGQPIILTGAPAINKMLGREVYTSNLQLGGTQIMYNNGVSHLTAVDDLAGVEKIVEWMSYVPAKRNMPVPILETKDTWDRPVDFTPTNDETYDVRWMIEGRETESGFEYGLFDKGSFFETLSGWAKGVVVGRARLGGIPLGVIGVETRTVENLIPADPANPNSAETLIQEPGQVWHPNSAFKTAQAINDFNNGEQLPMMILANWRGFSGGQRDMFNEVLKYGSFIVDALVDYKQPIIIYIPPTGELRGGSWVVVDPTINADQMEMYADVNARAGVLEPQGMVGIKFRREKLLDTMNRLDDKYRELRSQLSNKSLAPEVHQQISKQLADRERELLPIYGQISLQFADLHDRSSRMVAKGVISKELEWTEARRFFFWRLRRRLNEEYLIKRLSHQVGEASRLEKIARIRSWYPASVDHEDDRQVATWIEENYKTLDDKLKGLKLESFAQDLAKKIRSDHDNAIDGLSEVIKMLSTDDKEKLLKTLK

Human ACC2 = Human ACC2 (Homo sapiens, UniProt O00763); assay: In vitro ACC2 inhibition assay (ADP-Glo), human ACC2; format: biochemical; conditions: 5 nM ACC2, 20 μM ATP, 20 μM acetyl-CoA
Sequence of Human ACC2 (O00763 whole entry): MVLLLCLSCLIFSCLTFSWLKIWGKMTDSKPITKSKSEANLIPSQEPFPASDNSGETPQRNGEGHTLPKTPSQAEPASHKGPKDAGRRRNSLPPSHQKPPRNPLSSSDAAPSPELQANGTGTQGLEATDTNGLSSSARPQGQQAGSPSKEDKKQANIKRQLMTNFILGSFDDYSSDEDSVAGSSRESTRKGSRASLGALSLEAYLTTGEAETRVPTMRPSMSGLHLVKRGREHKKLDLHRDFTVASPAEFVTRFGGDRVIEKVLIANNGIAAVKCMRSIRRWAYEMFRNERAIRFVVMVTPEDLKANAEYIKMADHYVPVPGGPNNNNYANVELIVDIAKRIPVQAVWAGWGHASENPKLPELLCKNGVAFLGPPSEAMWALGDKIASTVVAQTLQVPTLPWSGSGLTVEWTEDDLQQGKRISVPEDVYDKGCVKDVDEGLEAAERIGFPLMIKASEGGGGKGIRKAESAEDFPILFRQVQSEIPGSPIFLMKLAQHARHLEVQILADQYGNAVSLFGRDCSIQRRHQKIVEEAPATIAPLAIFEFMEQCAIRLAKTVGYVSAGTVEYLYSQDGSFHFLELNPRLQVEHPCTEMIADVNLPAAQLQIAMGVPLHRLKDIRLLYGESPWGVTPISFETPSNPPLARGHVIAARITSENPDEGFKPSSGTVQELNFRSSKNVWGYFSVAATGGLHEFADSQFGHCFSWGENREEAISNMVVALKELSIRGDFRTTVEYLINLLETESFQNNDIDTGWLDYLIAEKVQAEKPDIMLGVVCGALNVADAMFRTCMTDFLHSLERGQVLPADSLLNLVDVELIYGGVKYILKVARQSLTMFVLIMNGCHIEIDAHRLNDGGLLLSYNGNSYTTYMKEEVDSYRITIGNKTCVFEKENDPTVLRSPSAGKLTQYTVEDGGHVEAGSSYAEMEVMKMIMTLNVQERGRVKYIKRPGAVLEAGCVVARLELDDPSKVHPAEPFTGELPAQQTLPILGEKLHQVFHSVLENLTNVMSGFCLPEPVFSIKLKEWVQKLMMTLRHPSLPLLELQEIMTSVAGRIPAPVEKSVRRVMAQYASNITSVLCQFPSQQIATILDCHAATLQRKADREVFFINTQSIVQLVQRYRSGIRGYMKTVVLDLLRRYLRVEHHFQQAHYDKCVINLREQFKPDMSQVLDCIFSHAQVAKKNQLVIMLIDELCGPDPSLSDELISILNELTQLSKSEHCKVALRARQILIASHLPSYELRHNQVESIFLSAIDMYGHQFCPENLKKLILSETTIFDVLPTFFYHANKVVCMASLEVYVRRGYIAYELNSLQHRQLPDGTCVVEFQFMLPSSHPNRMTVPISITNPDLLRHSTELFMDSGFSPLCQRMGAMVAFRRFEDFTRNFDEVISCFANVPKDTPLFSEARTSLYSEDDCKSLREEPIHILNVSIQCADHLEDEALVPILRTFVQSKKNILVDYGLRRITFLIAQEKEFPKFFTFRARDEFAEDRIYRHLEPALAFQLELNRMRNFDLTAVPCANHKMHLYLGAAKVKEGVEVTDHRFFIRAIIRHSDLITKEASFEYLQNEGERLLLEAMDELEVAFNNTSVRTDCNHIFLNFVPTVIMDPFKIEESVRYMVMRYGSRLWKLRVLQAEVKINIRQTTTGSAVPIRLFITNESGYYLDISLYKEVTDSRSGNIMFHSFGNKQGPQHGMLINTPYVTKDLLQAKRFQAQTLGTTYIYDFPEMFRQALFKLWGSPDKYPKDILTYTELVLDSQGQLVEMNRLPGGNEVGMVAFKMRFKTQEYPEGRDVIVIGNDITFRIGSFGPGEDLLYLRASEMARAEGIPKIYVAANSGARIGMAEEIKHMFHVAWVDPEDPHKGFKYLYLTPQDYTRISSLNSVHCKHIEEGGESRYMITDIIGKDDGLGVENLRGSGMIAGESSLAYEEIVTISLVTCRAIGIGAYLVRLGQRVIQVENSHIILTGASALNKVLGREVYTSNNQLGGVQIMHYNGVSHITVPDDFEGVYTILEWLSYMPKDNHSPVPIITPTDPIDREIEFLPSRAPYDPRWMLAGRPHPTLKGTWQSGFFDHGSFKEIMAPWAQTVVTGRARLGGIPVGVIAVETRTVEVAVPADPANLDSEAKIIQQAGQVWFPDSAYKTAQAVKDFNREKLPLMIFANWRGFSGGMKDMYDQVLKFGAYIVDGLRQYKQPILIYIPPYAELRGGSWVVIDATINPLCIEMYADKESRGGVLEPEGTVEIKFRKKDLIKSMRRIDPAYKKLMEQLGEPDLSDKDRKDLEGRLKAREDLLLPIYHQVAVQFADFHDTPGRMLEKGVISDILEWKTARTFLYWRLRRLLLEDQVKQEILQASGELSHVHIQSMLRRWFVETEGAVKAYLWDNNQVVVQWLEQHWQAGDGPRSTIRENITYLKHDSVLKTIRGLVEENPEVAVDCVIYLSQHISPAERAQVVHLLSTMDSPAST

[1] = system: C. parapsilosis ATCC 22019; assay: Anti-Fungal Activity Assay (broth microtiter MIC), C. parapsilosis; format: cell-based, Candida parapsilosis; conditions: for MIC: Lodderomyces parapsilosis, ATCC22019, 48 h, read-out: MIC C. parapsilosis ATCC 22019
Description: as §1

C. albicans ATCC 90028 = assay: Anti-Fungal Activity Assay (broth microtiter MIC), C. albicans; format: cell-based, Candida albicans; conditions: for MIC: Candida albicans, ATCC90028, 48 h, read-out: MIC C. albicans ATCC 90028
Description: as §1

[2] = 3 replicates, MIC recorded at 48 h

Structure (SMILES) | IC50 (Fungal ACC2) | IC50 (Human ACC2) | further results
COc1ccc(F)cc1[C@H](Cn1c(=O)n(C2CCN(C)C2=O)c(=O)c2c(C)c(-n3nccn3)sc21)OC1CCOCC1 (stereo partly drawn) [Compound I-10, 1-((R)-2-(5-fluoro-2-methoxyphenyl)-2-((tetrahydro-2H-pyran-4-yl)oxy)ethyl)-5-methyl-3-(1-methyl-2-oxopyrrolidin-3-yl)-6-(2H-1,2,3-triazol-2-yl)thieno[2,3-d]pyrimidine-2,4(1H,3H)-dione] | 0.7 to 2 nM | 2 to 10 nM | MIC (C. krusei ATCC 6258; [2]): 0.25 to 1 mg/L (≈ 0.418 to 1.67 µM); MIC [1, 2]: 0.25 to 1 mg/L (≈ 0.418 to 1.67 µM)
COCCO[C@@H](Cn1c(=O)n(C2CCCN(C)C2=O)c(=O)c2c(C)c(-n3nccn3)sc21)c1cc(F)ccc1OC (stereo partly drawn) [Compound I-14, 1-((R)-2-(5-fluoro-2-methoxyphenyl)-2-(2-methoxy-ethoxy)ethyl)-5-methyl-3-(1-methyl-2-oxopiperidin-3-yl)-6-(2H-1,2,3-triazol-2-yl)thieno[2,3-d]pyrimidine-2,4(1H,3H)-dione] | 2 to 10 nM | 10 to 100 nM | 
COc1ccccc1[C@H](Cn1c(=O)n([C@H]2CCCNC2=O)c(=O)c2c(C)c(-c3ncco3)sc21)OCCO [Compound I-60, 1-((R)-2-(2-hydroxyethoxy)-2-(2-methoxyphenyl)ethyl)-5-methyl-6-(oxazol-2-yl)-3-((S)-2-oxopiperidin-3-yl)thieno[2,3-d]pyrimidine-2,4(1H,3H)-dione] | 0.7 to 2 nM | 10 to 100 nM | 
COc1ccc(F)cc1[C@H](Cn1c(=O)n([C@@H]2CCN(C(C)C)C2=O)c(=O)c2c(C)c(-n3nccn3)sc21)OC1CCOCC1 [Compound I-139, 1-((R)-2-(5-fluoro-2-methoxyphenyl)-2-((tetrahydro-2H-pyran-4-yl)oxy)ethyl)-3-((R)-1-isopropyl-2-oxopyrrolidin-3-yl)-5-methyl-6-(2H-1,2,3-triazol-2-yl)thieno[2,3-d]pyrimidine-2,4(1H,3H)-dione] |  | 2 to 10 nM | MIC C. krusei ATCC 6258 (C. krusei ATCC 6258; [2]): B (provided an MIC of 1.1-2.0 μg/mL); MIC C. albicans ATCC 90028 (C. albicans ATCC 90028; [2]): C (provided an MIC of 2.1-4.0 μg/mL); MIC C. parapsilosis ATCC 22019 [1, 2]: B (provided an MIC of 1.1-2.0 μg/mL)
COCCO[C@@H](Cn1c(=O)n([C@]2(C)CCNC2=O)c(=O)c2c(C)c(-n3nccn3)sc21)c1cc(F)ccc1OC [Compound I-140, 1-((R)-2-(5-fluoro-2-methoxyphenyl)-2-(2-methoxy-ethoxy)ethyl)-5-methyl-3-((R)-3-methyl-2-oxopyrrolidin-3-yl)-6-(2H-1,2,3-triazol-2-yl)thieno[2,3-d]pyrimidine-2,4(1H,3H)-dione] | > 1000 nM | > 1000 nM | 
COCCO[C@@H](Cn1c(=O)n([C@@]2(C)CCNC2=O)c(=O)c2c(C)c(-n3nccn3)sc21)c1cc(F)ccc1OC [Compound I-141, 1-((R)-2-(5-fluoro-2-methoxyphenyl)-2-(2-methoxyethoxy)ethyl)-5-methyl-3-((S)-3-methyl-2-oxopyrrolidin-3-yl)-6-(2H-1,2,3-triazol-2-yl)thieno[2,3-d]pyrimidine-2,4(1H,3H)-dione] | > 1000 nM | > 1000 nM | 
COCCO[C@@H](Cn1c(=O)n([C@]2(C)CCN(C)C2=O)c(=O)c2c(C)c(-n3nccn3)sc21)c1cc(F)ccc1OC [Compound I-146, 3-((R)-1,3-dimethyl-2-oxopyrrolidin-3-yl)-1-((R)-2-(5-fluoro-2-methoxyphenyl)-2-(2-methoxyethoxy)ethyl)-5-methyl-6-(2H-1,2,3-triazol-2-yl)thieno[2,3-d]pyrimidine-2,4(1H,3H)-dione] | > 1000 nM | > 1000 nM | 
COCCO[C@@H](Cn1c(=O)n([C@@]2(C)CCN(C)C2=O)c(=O)c2c(C)c(-n3nccn3)sc21)c1cc(F)ccc1OC [Compound I-148, 3-((S)-1,3-dimethyl-2-oxopyrrolidin-3-yl)-1-((R)-2-(5-fluoro-2-methoxyphenyl)-2-(2-methoxyethoxy)ethyl)-5-methyl-6-(2H-1,2,3-triazol-2-yl)thieno[2,3-d]pyrimidine-24(1H,3H)-dione] | > 1000 nM | > 1000 nM | 
CCN1CC[C@H](n2c(=O)c3c(C)c(-n4nccn4)sc3n(C[C@H](OC3CCOCC3)c3cc(F)ccc3OC)c2=O)C1=O [Compound I-150, 3-((S)-1-ethyl-2-oxopyrrolidin-3-yl)-1-((R)-2-(5-fluoro-2-methoxyphenyl)-2-((tetrahydro-2H-pyran-4-yl)oxy)ethyl)-5-methyl-6-(2H-1,2,3-triazol-2-yl)thieno[2,3-d]pyrimidine-2,4(1H,3H)-dione] |  | 2 to 10 nM | MIC (C. krusei ATCC 6258; [2]): 0.075 to 0.24 mg/L (≈ 0.122 to 0.392 µM); MIC (C. albicans ATCC 90028; [2]): 0.25 to 1 mg/L (≈ 0.408 to 1.63 µM); MIC [1, 2]: 0.25 to 1 mg/L (≈ 0.408 to 1.63 µM)
CCN1CC[C@@H](n2c(=O)c3c(C)c(-n4nccn4)sc3n(C[C@H](OC3CCOCC3)c3cc(F)ccc3OC)c2=O)C1=O [Compound I-151] |  | 2 to 10 nM | MIC (C. krusei ATCC 6258; [2]): 0.075 to 0.24 mg/L (≈ 0.122 to 0.392 µM); MIC (C. albicans ATCC 90028; [2]): 0.25 to 1 mg/L (≈ 0.408 to 1.63 µM); MIC [1, 2]: 0.25 to 1 mg/L (≈ 0.408 to 1.63 µM)
COCCO[C@@H](Cn1c(=O)n([C@@H]2CCN(C)C2=O)c(=O)c2c(C)c(-n3nccn3)sc21)c1cc(F)ccc1OCC#N [Compound I-159, 2-(4-fluoro-2-((R)-1-(2-methoxyethoxy)-2-(5-methyl-3-((R)-1-methyl-2-oxopyrrolidin-3-yl)-2,4-dioxo-6-(2H2H-1,2,3-triazol-2-yl)-3,4-dihydrothieno[2,3-d]pyrimidin-1 (2H)-yl)ethyl)phenoxy)acetonitrile] |  | > 1000 nM | MIC (C. krusei ATCC 6258): 2.1 to 4 mg/L (≈ 3.51 to 6.69 µM); MIC (C. albicans ATCC 90028): 2.1 to 4 mg/L (≈ 3.51 to 6.69 µM); MIC [1]: 2.1 to 4 mg/L (≈ 3.51 to 6.69 µM)
COCCO[C@@H](Cn1c(=O)n([C@H]2CCN(C)C2=O)c(=O)c2c(C)c(-n3nccn3)sc21)c1cc(F)ccc1OCC#N [Compound I-160, 2-(4-fluoro-2-((R)-1-(2-methoxyethoxy)-2-(5-methyl-3-((S)-1-methyl-2-oxopyrrolidin-3-yl)-2,4-dioxo-6-(2H-1,2,3-triazol-2-yl)-3,4-dihydrothieno[2,3-d]pyrimidin-1(2H)-yl)ethyl)phenoxy)acetonitrile] |  | 10 to 100 nM | MIC (C. krusei ATCC 6258): 2.1 to 4 mg/L (≈ 3.51 to 6.69 µM); MIC (C. albicans ATCC 90028): 2.1 to 4 mg/L (≈ 3.51 to 6.69 µM); MIC [1]: 2.1 to 4 mg/L (≈ 3.51 to 6.69 µM)
COc1ccc(F)cc1[C@H](Cn1c(=O)n([C@@H]2CCN(C)C2=O)c(=O)c2c(C)c(-n3nccn3)sc21)O[C@H]1C[C@H](O)C1 [Compound I-185, 1-((R)-2-(5-fluoro-2-methoxyphenyl)-2-((1r,3R)-3-hydroxycyclobutoxy)ethyl)-5-methyl-3-((R)-1-methyl-2-oxopyrrolidin-3-yl)-6-(2H-1,2,3-triazol-2-yl)thieno[2,3-d]pyrimidine-2,4(1H,3H)-dione] | 0.7 to 2 nM | 2 to 10 nM | 
COc1ccc(F)cc1[C@H](Cn1c(=O)n([C@@H]2CCNC2=O)c(=O)c2c(C)c(-c3ncco3)sc21)O[C@H]1CC[C@@H](O)CC1 [Compound I-191, 1-((R)-2-(5-fluoro-2-methoxyphenyl)-2-(((1s, 4S)-4-hydroxycyclohexyl)oxy)ethyl)-5-methyl-6-(oxazol-2-yl)-3-((R)-2-oxopyrrolidin-3-yl)thieno[2,3-d]pyrimidine-2,4(1H,3H)-dione] | 0.7 to 2 nM | 0.7 to 2 nM | 
COc1ccc(F)cc1[C@H](Cn1c(=O)n([C@H]2CCNC2=O)c(=O)c2c(C)c(-c3ncco3)sc21)O[C@H]1CC[C@@H](O)CC1 [Compound I-192, 1-((R)-2-(5-fluoro-2-methoxyphenyl)-2-(((1 s, 4S)4-hydroxycyclohexyl)oxy)ethyl)-5-methyl-6-(oxazol-2-yl)-3-((S)-2-oxopyrrolidin-3-yl)thieno[2,3-d]pyrimidine-2,4(1H,3H)-dione] | 0.7 to 2 nM | 2 to 10 nM | 
COc1ccc(F)cc1[C@H](Cn1c(=O)n([C@@H]2CCN(C)C2=O)c(=O)c2c(C)c(-c3ncco3)sc21)O[C@H]1CC[C@@H](O)CC1 [Compound I-193, 1-((R)-2-(5-fluoro-2-methoxyphenyl)-2-(((1 s, 4S)-4-hydroxycyclohexyl)oxy)ethyl)-5-methyl-3-((R)-1-methyl-2-oxopyrrolidin-3-yl)-6-(oxazol-2-yl)thieno[2,3-d]pyrimidine-2,4(1H,3H)-dione] | 0.7 to 2 nM | 2 to 10 nM | 
COc1ccc(F)cc1[C@H](Cn1c(=O)n([C@H]2CCN(C)C2=O)c(=O)c2c(C)c(-c3ncco3)sc21)O[C@H]1CC[C@@H](O)CC1 [Compound I-194, 1-((R)-2-(5-fluoro-2-methoxyphenyl)-2-(((1 s, 4S)-4-hydroxycyclohexyl)oxy)ethyl)-5-methyl-3-((S)-1-methyl-2-oxopyrrolidin-3-yl)-6-(oxazol-2-yl)thieno[2,3-d]pyrimidine-2,4(1H,3H)-dione] | 0.7 to 2 nM | 2 to 10 nM | 
